Results on 17 compounds are retold here after PMC10018501 (ACS Omega, 2023).

“And” between values parts separate entries of the source, which are not always exact repeats. Identical values can stand only once. Like-named read-outs stand apart in the source and are kept apart here. A value given as a limit tells only on which side of the number the result lay.

One data set has as its target hBACE-1 (Homo sapiens, UniProt P56817). Kind of data set: biochemical.
The target of the next data set is hBChE (Equus caballus, UniProt P81908). Kind of data set: In vitro hBChE inhibition assay. The class given is biochemical, human.
The target of the next data set is hAChE (Homo sapiens, UniProt P22303). Briefly: In vitro hAChE inhibition assay. Type of data set: biochemical. The settings on record: for selectivity index hBChE/hAChE: IC50 of hBChE/IC50 of hAChE.
The conditions of data set [1]: n = 3, mean ± SEM.
Data set [2] concerns differentiated SH-SY5Y cells. Briefly: Neurotoxicity estimation. Type of data set: cell-based. The settings on record: 10, 20, 40 and 80 μM, 24 h.
A further data set concerns the target Aβ1–42 with hAChE (Homo sapiens, UniProt P22303). Kind of data set: hAChE-induced Aβ aggregation inhibition thioflavin T assay. Type of data set: biochemical. The settings on record: compound 5, 10 and 20 μM; Aβ 10 μM.
The nature of a further data set: in vitro. The settings on record: PAMPA, pH 7.4. On the technique in general: In PAMPA a lipid-coated filter parts donor from acceptor wells.
A further data set has as its target Aβ1–42 (Homo sapiens, UniProt P05067). Briefly: Self-induced Aβ aggregation inhibition thioflavin T assay. The class given is biochemical. The settings on record: compound 5, 10 and 20 μM; Aβ 10 μM.
Data set [3] relates to nondifferentiated SH-SY5Y cells. Kind of data set: Neuroprotective estimation. Type of data set: cell-based. The settings on record: Homo sapiens, 24 h, read-out: cell viability.
Data set [4] has as its target PAS-AChE (hAChE-PAS region) (Homo sapiens, UniProt P22303). Kind of data set: Propidium iodide displacement assay. The class given is binding.
The subject of data set [5] is ICV Aβ1–42-induced rat model. Kind of data set: Aβ-induced Morris water maze test. Conditions: SD-6 10 mg/kg, donepezil 5 mg/kg, orally 9 days; vs Aβ group.
Data set [6] concerns scopolamine-induced rat model. Kind of data set: Scopolamine-induced Y-maze test. Type of data set: in vivo, Wistar rats. Conditions: SD-6 2.5, 5, 10 mg/kg p.o.; donepezil 5 mg/kg p.o.; 7 days; vs scopolamine group.
Setting [7] is: hAChE inhibitory activity (good/moderate/poor), class in words.

Sequence of hBChE (P81908 whole entry): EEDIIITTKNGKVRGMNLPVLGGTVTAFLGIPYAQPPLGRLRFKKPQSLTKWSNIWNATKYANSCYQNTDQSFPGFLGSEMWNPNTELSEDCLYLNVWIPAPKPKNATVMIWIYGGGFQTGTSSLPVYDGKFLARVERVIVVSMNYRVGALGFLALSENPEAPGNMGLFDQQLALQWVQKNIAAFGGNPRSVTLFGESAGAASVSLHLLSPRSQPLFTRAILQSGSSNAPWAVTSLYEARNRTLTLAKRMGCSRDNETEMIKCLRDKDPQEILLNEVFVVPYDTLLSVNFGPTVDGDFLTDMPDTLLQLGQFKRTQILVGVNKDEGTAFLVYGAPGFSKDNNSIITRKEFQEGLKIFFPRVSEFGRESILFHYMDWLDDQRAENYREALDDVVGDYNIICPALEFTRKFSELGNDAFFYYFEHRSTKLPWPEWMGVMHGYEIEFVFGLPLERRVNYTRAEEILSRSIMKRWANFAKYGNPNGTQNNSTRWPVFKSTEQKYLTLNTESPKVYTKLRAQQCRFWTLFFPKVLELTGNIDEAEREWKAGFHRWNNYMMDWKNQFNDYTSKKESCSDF
Sequence of hBACE-1 (P56817 46-501): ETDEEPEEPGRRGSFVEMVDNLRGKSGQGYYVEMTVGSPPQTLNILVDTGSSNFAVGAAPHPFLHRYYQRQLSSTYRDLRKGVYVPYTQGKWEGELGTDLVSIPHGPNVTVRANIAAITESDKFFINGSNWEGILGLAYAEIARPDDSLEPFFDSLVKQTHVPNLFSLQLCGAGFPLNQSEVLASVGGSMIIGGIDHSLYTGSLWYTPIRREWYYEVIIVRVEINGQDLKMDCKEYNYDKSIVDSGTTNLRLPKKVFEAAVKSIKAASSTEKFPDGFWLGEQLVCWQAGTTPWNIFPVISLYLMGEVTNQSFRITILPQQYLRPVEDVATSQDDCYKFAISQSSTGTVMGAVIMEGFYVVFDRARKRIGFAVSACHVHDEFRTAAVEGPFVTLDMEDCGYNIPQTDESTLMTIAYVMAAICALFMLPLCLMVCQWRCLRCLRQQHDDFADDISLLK
Sequence of PAS-AChE (hAChE-PAS region) (P22303 32-617 isoform P22303-2 limits assumed): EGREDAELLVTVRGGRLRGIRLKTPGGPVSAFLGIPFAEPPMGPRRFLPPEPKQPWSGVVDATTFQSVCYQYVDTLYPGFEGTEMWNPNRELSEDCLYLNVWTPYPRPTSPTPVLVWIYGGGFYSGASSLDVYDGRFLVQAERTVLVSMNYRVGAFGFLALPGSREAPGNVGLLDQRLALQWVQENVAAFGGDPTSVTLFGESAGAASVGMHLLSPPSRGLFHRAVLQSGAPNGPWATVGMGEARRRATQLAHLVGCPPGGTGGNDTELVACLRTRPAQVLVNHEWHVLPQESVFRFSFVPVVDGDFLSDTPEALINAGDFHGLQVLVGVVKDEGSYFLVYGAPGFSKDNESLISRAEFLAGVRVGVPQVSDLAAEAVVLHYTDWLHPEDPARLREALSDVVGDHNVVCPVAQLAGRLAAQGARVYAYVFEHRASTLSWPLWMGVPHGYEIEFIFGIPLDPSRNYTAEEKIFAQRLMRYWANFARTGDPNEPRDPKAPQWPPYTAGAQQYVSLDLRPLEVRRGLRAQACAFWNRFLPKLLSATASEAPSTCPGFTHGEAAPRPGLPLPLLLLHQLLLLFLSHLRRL
Sequence of hAChE (P22303 32-617 isoform P22303-2 limits assumed): as above
Sequence of Aβ1–42 (P05067 672-713): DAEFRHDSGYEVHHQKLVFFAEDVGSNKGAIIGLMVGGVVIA
Sequence of Aβ1–42 with hAChE (P22303 32-588 isoform P22303-2): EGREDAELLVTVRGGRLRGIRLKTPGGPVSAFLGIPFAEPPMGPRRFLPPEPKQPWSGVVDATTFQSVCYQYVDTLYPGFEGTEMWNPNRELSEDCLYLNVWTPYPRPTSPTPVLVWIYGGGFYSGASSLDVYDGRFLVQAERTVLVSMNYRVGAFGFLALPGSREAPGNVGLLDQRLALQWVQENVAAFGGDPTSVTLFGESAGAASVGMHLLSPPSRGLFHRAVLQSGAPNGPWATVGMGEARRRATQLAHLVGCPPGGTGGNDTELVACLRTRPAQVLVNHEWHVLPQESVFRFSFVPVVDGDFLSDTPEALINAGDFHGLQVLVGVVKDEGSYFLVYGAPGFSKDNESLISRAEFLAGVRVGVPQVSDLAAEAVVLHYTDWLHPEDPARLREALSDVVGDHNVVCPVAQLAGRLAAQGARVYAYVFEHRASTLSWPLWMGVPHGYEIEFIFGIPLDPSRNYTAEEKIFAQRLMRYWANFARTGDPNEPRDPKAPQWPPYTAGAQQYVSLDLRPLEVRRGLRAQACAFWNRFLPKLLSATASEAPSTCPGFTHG

As usually defined, the IC50 is the concentration that gives 50% inhibition. High values mean a need for much substance, low ones inhibition by little substance. In the case of `S=c1oc(-c2ccc(Cl)cc2)nn1CN1CCN(Cc2ccccc2)CC1` [SD-1, 3-((4-Benzylpiperazin-1-yl)methyl)-5-(4-chlorophenyl)-1,3,4-oxadiazole-2(3H)-thione], the IC50 is 943 ± 18 nM on hBACE-1 (IC50 ± SEM hBACE-1, n = 3); greater than 10000 nM on hBChE; 1260 ± 19 nM against hAChE (IC50 ± SEM hAChE, n = 3); 1000 to 2000 nM against hAChE (setting [7]).
The matching figures for `O=[N+]([O-])c1ccc(-c2nn(CN3CCN(Cc4ccccc4)CC3)c(=S)o2)cc1` [SD-2, 3-((4-Benzylpiperazin-1-yl)methyl)-5-(4-nitrophenyl)-1,3,4-oxadiazole-2(3H)-thione]: 811 ± 23 nM, greater than 10000 nM, 1107 ± 8 nM and 1000 to 2000 nM.
Consider `FC(F)(F)Oc1ccc(-c2nn(CN3CCN(Cc4ccccc4)CC3)c(=S)o2)cc1` [SD-3, 3-((4-Benzylpiperazin-1-yl)methyl)-5-(4-(trifluoromethoxy)phenyl)-1,3,4-oxadiazole-2(3H)-thione], for which the IC50 at hBACE-1 was 1000 to 2500 nM; on hBACE-1 (IC50 ± SEM hBACE-1, n = 3) it was 1110 ± 16 nM; at hBChE, greater than 10000 nM; against hAChE (IC50 ± SEM hAChE, n = 3), 1335 ± 12 nM; against hAChE (setting [7]), 1000 to 2000 nM.
Broadly, the Papp is the rate of passage across a membrane or cell layer, normalised by area and donor concentration. The low end stands for slow passage, the high end for fast passage. One may read the viability as the share of living cells, or the viability signal relative to a control. In the case of `N#Cc1cccc(-c2nn(CN3CCN(Cc4ccccc4)CC3)c(=S)o2)c1` [SD-4, 3-(4-((4-Benzylpiperazin-1-yl)methyl)-5-thioxo-4,5-dihydro-1,3,4-oxadiazol-2-yl)benzonitrile], the “Pe(exp) PAMPA–BBB” value in [1] is 6.127 10^–6 cm/s. In data set [2], the “neurotoxicity (MTT, cell population and morphology)” value was “non-neurotoxic”. Also, the IC50 is 651 ± 14 nM against hBACE-1 (IC50 ± SEM hBACE-1, n = 3); 1650 ± 19 nM against hBChE; 1077 ± 9 nM against hAChE (IC50 ± SEM hAChE, n = 3); less than 1000 nM on hAChE (setting [7]). The “% Aβ aggregation inhibition, hAChE-induced” value on Aβ1–42 with hAChE was 38–79%. Further, the apparent permeability coefficient (Papp) in the data set “in vitro” was determined as 6.127 ± 0.019 ×10⁻⁶ cm/s. In addition, the “% Aβ aggregation inhibition, self-induced” value at Aβ1–42 is 20–61%. The “selectivity index hBChE/hAChE” value at hAChE amounted to 1.534. In addition, in data set [3], the viability at 5 µM is 59.1%. Moreover, the viability at 10 µM in data set [3] was 71.6%. In addition, the viability at 20 µM in [3] was 82.5%. Also, the “PAS-AChE propidium iodide displacement (%)” value was 24.6% and 24.661 ± 1.421% in data set [4] ([I] = 10 μM); 55.1% and 55.157 ± 1.247% in [4] ([I] = 50 μM).
For `O=[N+]([O-])c1ccccc1-c1nn(CN2CCN(Cc3ccccc3)CC2)c(=S)o1` [SD-5, 3-((4-Benzylpiperazin-1-yl)methyl)-5-(2-nitrophenyl)-1,3,4-oxadiazole-2(3H)-thione], the IC50 on hBACE-1 is 1000 to 2500 nM; on hBACE-1 (IC50 ± SEM hBACE-1, n = 3) it was 1170 ± 21 nM; on hBChE, greater than 10000 nM; against hAChE (IC50 ± SEM hAChE, n = 3), 1890 ± 31 nM. On hAChE (class in words), the “hAChE inhibitory activity (good/moderate/poor)” value is “moderate to poor”.
Take `S=c1oc(-c2cccc(Cl)c2)nn1CN1CCN(Cc2ccccc2)CC1` [SD-7, 3-((4-Benzylpiperazin-1-yl)methyl)-5-(3-chlorophenyl)-1,3,4-oxadiazole-2(3H)-thione]: the IC50 at hBACE-1 (IC50 ± SEM hBACE-1, n = 3) was 885 ± 13 nM; against hBChE, greater than 10000 nM; against hAChE (IC50 ± SEM hAChE, n = 3) it was 1420 ± 22 nM; against hAChE (setting [7]), less than 1000 nM.
Consider `FC(F)(F)c1ccc(-c2nn(CN3CCN(Cc4ccccc4)CC3)c(=S)o2)cc1` [SD-8, 3-((4-Benzylpiperazin-1-yl)methyl)-5-(4-(trifluoromethyl)phenyl)-1,3,4-oxadiazole-2(3H)-thione], for which, in data set [1], the “Pe(exp) PAMPA–BBB” value was 5.019 10^–6 cm/s. Also, the IC50 was 701 ± 19 nM on hBACE-1 (IC50 ± SEM hBACE-1, n = 3); 2420 ± 41 nM against hBChE; 1320 ± 18 nM against hAChE (IC50 ± SEM hAChE, n = 3); 1000 to 2000 nM at hAChE (setting [7]). In addition, the Papp in “in vitro” worked out at 5.019 ± 0.033 ×10⁻⁶ cm/s. Besides, the “selectivity index hBChE/hAChE” value at hAChE was found to be 1.835. For the same compound, the “PAS-AChE propidium iodide displacement (%)” value in data set [4] ([I] = 10 μM) is recorded as 21.446 ± 1.147%; in [4] ([I] = 10 μM, listed as SD-08), 21.4%; in data set [4] ([I] = 50 μM), 41.709 ± 1.271%; in [4] ([I] = 50 μM, listed as SD-08), 41.7%.
`S=c1oc(-c2ccc(Cl)cc2Cl)nn1CN1CCN(Cc2ccccc2)CC1` [SD-9, 3-((4-Benzylpiperazin-1-yl)methyl)-5-(2,4-dichlorophenyl)-1,3,4-oxadiazole-2(3H)-thione]: the IC50 was 1000 to 2500 nM against hBACE-1; 1410 ± 31 nM against hBACE-1 (IC50 ± SEM hBACE-1, n = 3); greater than 10000 nM against hBChE; 2110 ± 37 nM on hAChE (IC50 ± SEM hAChE, n = 3). Besides, on hAChE (class in words), the “hAChE inhibitory activity (good/moderate/poor)” value is reported as “moderate to poor”.
For `Oc1ccc(-c2nn(CN3CCN(Cc4ccccc4)CC3)c(=S)o2)cc1` [SD-10, 3-((4-Benzylpiperazin-1-yl)methyl)-5-(4-hydroxyphenyl)-1,3,4-oxadiazole-2(3H)-thione], the IC50 at hBACE-1 (IC50 ± SEM hBACE-1, n = 3) was greater than 5000 nM; against hBChE, greater than 10000 nM; against hAChE (IC50 ± SEM hAChE, n = 3), 1220 ± 13 nM; against hAChE (setting [7]) it was 1000 to 2000 nM.
`Nc1ccc(-c2nn(CN3CCN(Cc4ccccc4)CC3)c(=S)o2)cc1` [SD-11, 5-(4-Aminophenyl)-3-((4-benzylpiperazin-1-yl)methyl)-1,3,4-oxadiazole-2(3H)-thione]: the IC50 against hBACE-1 (IC50 ± SEM hBACE-1, n = 3) was greater than 5000 nM; against hBChE it was greater than 10000 nM; at hAChE (IC50 ± SEM hAChE, n = 3), 1220 ± 27 nM; at hAChE (setting [7]), 1000 to 2000 nM.
In the case of `COc1cccc(-c2nn(CN3CCN(Cc4ccccc4)CC3)c(=S)o2)c1` [SD-12, 3-((4-Benzylpiperazin-1-yl)methyl)-5-(3-methoxyphenyl)-1,3,4-oxadiazole-2(3H)-thione], the IC50 was 1000 to 2500 nM at hBACE-1; 1210 ± 16 nM against hBACE-1 (IC50 ± SEM hBACE-1, n = 3); greater than 10000 nM on hBChE; 1940 ± 24 nM on hAChE (IC50 ± SEM hAChE, n = 3); 1000 to 2000 nM at hAChE (setting [7]).
Regarding `COc1ccc(-c2nn(CN3CCN(Cc4ccccc4)CC3)c(=S)o2)cc1` [SD-13, 3-((4-Benzylpiperazin-1-yl)methyl)-5-(4-methoxyphenyl)-1,3,4-oxadiazole-2(3H)-thione], the IC50 against hBACE-1 is 1000 to 2500 nM; on hBACE-1 (IC50 ± SEM hBACE-1, n = 3), 1358 ± 12 nM; against hBChE, greater than 10000 nM; against hAChE (IC50 ± SEM hAChE, n = 3), 1530 ± 28 nM; at hAChE (setting [7]), 1000 to 2000 nM.
Consider `O=[N+]([O-])c1cc(-c2nn(CN3CCN(Cc4ccccc4)CC3)c(=S)o2)ccc1Cl` [SD-14, 3-((4-Benzylpiperazin-1-yl)methyl)-5-(4-chloro-3-nitrophenyl)-1,3,4-oxadiazole-2(3H)-thione], for which the “Pe(exp) PAMPA–BBB” value in data set [1] is listed as 4.848 10^–6 cm/s. Moreover, the IC50 was 806 ± 11 nM at hBACE-1 (IC50 ± SEM hBACE-1, n = 3); 1940 ± 33 nM on hBChE; 1140 ± 18 nM on hAChE (IC50 ± SEM hAChE, n = 3); 1000 to 2000 nM against hAChE (setting [7]). Further, the Papp in “in vitro” turned out to be 4.858 ± 0.016 ×10⁻⁶ cm/s. In addition, at hAChE, the “selectivity index hBChE/hAChE” value worked out at 1.710. Besides, the “PAS-AChE propidium iodide displacement (%)” value in data set [4] ([I] = 10 μM) is 19.7% and 19.773 ± 1.216%; in data set [4] ([I] = 50 μM), 36.8% and 36.841 ± 1.069%.
`O=[N+]([O-])c1ccc(-c2nn(CN3CCN(Cc4ccccc4)CC3)c(=S)o2)c([N+](=O)[O-])c1` [SD-15, 3-((4-Benzylpiperazin-1-yl)methyl)-5-(2,4-dinitrophenyl)-1,3,4-oxadiazole-2(3H)-thione]: the IC50 against hBACE-1 was 1000 to 2500 nM; at hBACE-1 (IC50 ± SEM hBACE-1, n = 3) it was 1450 ± 22 nM; against hBChE, greater than 10000 nM; against hAChE (IC50 ± SEM hAChE, n = 3) it was 1420 ± 23 nM. Further, at hAChE (class in words), the “hAChE inhibitory activity (good/moderate/poor)” value is “moderate to poor”.
In the same order, the values of `S=c1oc(-c2ccccc2Br)nn1CN1CCN(Cc2ccccc2)CC1` [SD-16, 3-((4-Benzylpiperazin-1-yl)methyl)-5-(2-bromophenyl)-1,3,4-oxadiazole-2(3H)-thione] are 1000 to 2500 nM, 1800 ± 29 nM, greater than 10000 nM, 2410 ± 27 nM and “moderate to poor”.
The matching figures for `Oc1ccc(-c2nn(CN3CCN(Cc4ccccc4)CC3)c(=S)o2)c(O)c1` [SD-17, 3-((4-Benzylpiperazin-1-yl)methyl)-5-(2,4-dihydroxyphenyl)-1,3,4-oxadiazole-2(3H)-thione]: 1000 to 2500 nM, 2150 ± 34 nM, greater than 10000 nM, 1792 ± 15 nM and “moderate to poor”.
As for `COc1cc2c(cc1OC)C(=O)C(CC1CCN(Cc3ccccc3)CC1)C2` (stereo not shown) [donepezil, reference compound], in data set [5], the “escape latency time (ELT)” value is recorded as “maximum decline in ELT”, the “time spent in the platform zone” value was “significantly (^bp < 0.001) higher” and the “total number of entries to the platform zone” value is “significantly (^bp < 0.001) different from the Aβ-treated animal group”. For the same compound, the “% spontaneous alterations” value in data set [6] is reported as “significant (^b,c,dp < 0.001) increase”. The “% Aβ aggregation inhibition, self-induced” value at Aβ1–42 is 21–37%.
